The values below come from ChEMBL document CHEMBL1153023, “Lathyrane diterpenes from Euphorbia lathyris as modulators of multidrug resistance and their crystal structures” (Bioorg Med Chem, 2009).

A short description of data set [1]: Reversal of p-gp-mediated multidrug-resistance in human MCF7/ADM cells after 48 hrs by SRB assay. It is filed as cell-based. Background: In SRB staining, fixed cells bind dye roughly in proportion to their protein.
A further data set deals with MCF/ADR. Description: Reversal of P-gp-mediated multidrug resistance in human MCF/ADR cells assessed as reversal fold after 48 hrs by SRB assay relative to control. It is filed as cell-based.
A further data set concerns MCF7/ADM. Description: Reversal of p-gp-mediated multidrug-resistance in human MCF7/ADM cells assessed as enhancement intensity at 10 ug/mL after 48 hrs by SRB assay relative to adriamycin. It is filed as cell-based.
The test system of the next data set is MCF7. Put plainly: Cytotoxicity against human MCF7 cells after 48 hrs by SRB assay. Type of data set: cell-based. Conditions: mcf7, 48 h; call rule not given here.
A short description of data set [2]: Octanol-water partition coefficient, log P of the compound. It is filed as physicochemical.

What is called IC50 is the point on the concentration scale where inhibition reaches its midpoint. The logP is a log measure of how a compound divides between an organic and an aqueous phase. Lower therefore signals a more hydrophilic compound. `CC(=O)O[C@@H]1[C@H]2[C@@H](OC(=O)Cc3ccccc3)[C@@H](C)C[C@]2(OC(C)=O)C(=O)/C(C)=C/[C@@H]2[C@H](CC[C@]13CO3)C2(C)C`: in data set [1], the IC50 was 246 µg/mL. Further, in the data set on MCF/ADR, the Ratio IC50 amounted to 4.4. The Activity in the data set on MCF7/ADM is 22%; with MCF7, “Not Active”. The logP in data set [2] is 5.6.

`CC(=O)OC/C1=C\C[C@H]2[C@@H](/C=C(\C)C(=O)[C@@]3(OC(C)=O)C[C@H](C)[C@H](OC(=O)c4ccccc4)[C@@H]3[C@H]1OC(C)=O)C2(C)C` (relative stereo): the IC50 in data set [1] came to 248 µg/mL. Moreover, the Ratio IC50 with MCF/ADR turned out to be 4.36. In addition, the values for the Activity with MCF7/ADM and in the data set with MCF7 were 15% and “Not Active”, respectively. In data set [2], this compound returned a logP of 6.1.

For `C=C1CC[C@H]2[C@@H](/C=C(\C)C(=O)[C@@]3(OC(C)=O)C[C@H](C)[C@H](OC(=O)c4ccccc4)[C@@H]3[C@H]1OC(C)=O)C2(C)C`, the IC50 in data set [1] was determined as 165 µg/mL. The Ratio IC50 in the data set with MCF/ADR stood at 6.57. In addition, the Activity in the data set on MCF7/ADM came out at 25%. This compound gave a logP in data set [2] of 6.4.

With `C=C1[C@@H](OC(=O)c2ccccc2)C[C@H]2[C@@H](/C=C(\C)C(=O)[C@@]3(OC(C)=O)C[C@H](C)[C@H](OC(=O)c4ccccc4)[C@@H]3[C@H]1OC(C)=O)C2(C)C`, in data set [1], the IC50 worked out at 84.3 µg/mL. For the same compound, the Ratio IC50 in the data set on MCF/ADR was determined as 12.8. The Activity with MCF7/ADM was 34%; with MCF7, “Not Active”. In data set [2], this compound yielded a logP of 7.9.

Consider `COc1ccc(CCN(C)CCCC(C#N)(c2ccc(OC)c(OC)c2)C(C)C)cc1OC` (configuration not stated) [VERAPAMIL], for which, in data set [1], the IC50 is 367 µg/mL. Besides, the Ratio IC50 in the data set on MCF/ADR stood at 2.95. In addition, the Activity in the data set with MCF7/ADM was 19%.

In the case of `CC(=O)OC/C1=C/[C@H]2[C@@H](OC(=O)/C=C/c3ccccc3)[C@@H](C)C[C@]2(OC(C)=O)C(=O)/C(C)=C/[C@@H]2[C@H](CC1)C2(C)C` (relative stereo), the concentration for half-maximal inhibition (IC50) in data set [1] is 105 µg/mL. The Ratio IC50 in the data set with MCF/ADR worked out at 10.3. Moreover, the Activity in the data set on MCF7/ADM is 54%; in the data set with MCF7, “Not Active”. This compound yielded a logP in data set [2] of 5.8.
